Earlier results, collected in patent EP1526849B1 (A. MENARINI INDUSTRIE FARMACEUTICHE RIUNITE S.R.L., priority 2002, dated 2004).

Conditions: gel with benzofenone-3 1%; 8 hours solar light; JP60155111 example 1

## CC(C(=O)O)c1cccc(C(=O)c2ccccc2)c1 (stereo not shown) [ketoprofen]
  percentage of ketoprofen not broken down: 90%
